The test system of data set [1] is H9-ALB-GFP/AFP-Tomato (dual clone 1) derived hepatocytes. The data set is described as follows: RNA-Seq of ES-derived hepatocytes treated with Stauprimide. The data set is classed as cell-based, human. Details: HNF4A RNA-Seq expression / ADH4 RNA-Seq expression / BAAT RNA-Seq expression / SERPINC1 RNA-Seq expression / SERPINA1 RNA-Seq expression / ALB RNA-Seq expression / AFP RNA-Seq expression / UGT1A9 RNA-Seq expression / UGT1A1 RNA-Seq expression / UGT1A6 RNA-Seq expression: unit not given here. The settings on record: dual clone 1 ES-derived hepatocytes (CDI), 72 hrs. How it is done:
The effects of Stauprimide in maturation of ES-derived hepatocytes was validated by RNA-Seq as described above. Briefly, the H9-ALB-GFP/AFP-Tomato (dual clone 1) were differentiated to a pure population of hepatocytes by CDI (Madison, Wis.) and treated with Stauprimide for 72 hours. […] Thus, Stauprimide is able to increase expression of mature hepatocyte genes and reduce the expression of the fetal marker AFP.

The subject of a further data set is hepatocytes. Nature of the data set: Robotic compound screen for albumin and AFP expression in hepatocytes. The format is cell-based. How it is done: A robotic screen was performed to determine compounds that increase expression of albumin in hepatocytes as an indicator that the compounds play a role in hepatocyte maturation. 1200 compounds were screened and 400 compounds analyzed for their effects on hepatocytes with regard to the levels of albumin and fetal marker AFP.

The subject of the next data set is HepG2 cells. The data set is described as follows: HepG2 viability / cell growth (cell counting by dye exclusion). The format is cell-based, human. The settings on record: HepG2, 72 hours, compared to vehicle control. The protocol: CYP2C9 and 3A4 metabolism were measured using CYP450 Glo assay (Promega). In short, substrates were added to the media and incubated for 72 hours and the amount of metabolites generated were measured by adding the detection reagent and quantifying the luminescence in a Tecan® plate reader. Background was measured by incubating the substrates for 72 hours in the same media without cells. Cell counting for proliferation assay was carried out by dye exclusion in an automated cell counter (ThermoFisher).

Data set [2] deals with primary human hepatocytes (PHHs). Nature of the data set: RNA-Seq gene expression in MAPK inhibitor treated primary human hepatocytes. The data set is classed as cell-based. How it is done: […]. […] […].
For small RNA-Seq profiling, hepatocytes from Hu8082 were used; for de-differentiation time course and let-7c transduction, hepatocytes from Hu4260, Hu8135, Hu4279 and Hu8137 were used. For both experiments, cells from all 4 donors were mixed in equal numbers after assessment of viability. For small molecule treatments, batch Hu4260 was used.
RNA-Seq was performed by LM-Seq (Illumina).
For small molecule treatments, batch Hu4260 was used.
. To ascertain that the increase in metabolic enzymes took place through specific MAPK inhibition, PHHs were treated with a second MAPK inhibitor, PD0325901, for 72 hours, followed by RNA-Seq analysis (Supplementary Table 4). […].

The test system of data set [3] is H9-ALB-GFP/AFP-Tomato (dual clone 1). The data set is described as follows: Gene expression of hepatocytes differentiated from ES cells with 3 or 18 days of Activin A. The data set is classed as cell-based, human. More on the design: scale not given here. The note with it: dual clone 1 hepatocytes, unsorted. How it is done: The H9-ALB-GFP/AFP-Tomato (dual clone 1) were differentiated to hepatocytes using the protocol depicted in FIG. 4. Either 3 day or 18 days of Activin A treatment was used with the rest of the protocol being the same. The cells were not sorted and differentiated for 18 and 33 days (for 3 and 18 day DE respectively).
ES cells were cultured in E8 medium (Reference 2) and were differentiated to hepatocytes following a previously published protocol (Reference 1) with modifications. Briefly, at approximately 50% confluency the ES cells were singularized by accutase and seeded on matrigel coated plate in E6 medium containing 100 ng/ml Activin A (Sigma). They were cultured in the Activin A medium for seven days. From day 8 to day 12 the cells were treated with 25 ng/ml FGF4 (R&D Systems) along with 20 ng/ml BMP2 in E6. During days 13 through 17 the cells were treated with 20 ng/ml HGF (R&D Systems) and 10 ng/ml Oncostatin M (R&D Systems) in E6. Finally, the cells were cultured in E6 containing 0.1 μM Dexamethasone (Sigma) from day 18 to day 22. From day 8 onwards, SB431542 and DAPT were added to the medium to inhibit TGFB and NOTCH respectively at 10 μM final concentration.

The subject of data set [4] is primary mouse hepatocytes. The data set is described as follows: RNA-Seq gene expression in primary mouse hepatocytes treated with kinase inhibitors. The note with it: 10 μM, 72 hours. The source says:
The next step was to determine if the PI3/Akt and MAPK pathways are involved in maintenance of hepatocyte maturation. We investigated whether small molecule inhibition of these pathways would mimic let-7's action and reduce the loss of mature function of hepatocytes in culture after removal from their microenvironment. […] Then, expression of the top ten important metabolic enzymes (CYPs, UGTs and transporters) by RNA-Seq with uncultured fresh hepatocytes and control vehicle hepatocytes treated for 72 hours was compared.
Hepatocytes from 6 black mice livers were isolated by perfusion following standard protocol and cultured on Matrigel coated plates in hepatocyte growth medium (Promocell). Whole developing livers from 6 black mice were used for RNA isolation with Trizol for let-7c measurements.
Total RNA (including microRNA) from all cells, which were not mentioned otherwise, were isolated using RNAeasy Plus Kit […] following manufacturers protocol. RNA-Seq was performed by LM-Seq (Illumina). MicroRNAs were sequenced using Illumina's small RNA sequencing kit. Expression of let-7 and U6 snoRNA were measured by quantitative PCR using ABI's kit. Let-7c expression levels were normalized by U6 snoRNA expression (RQ or relative quantity values, error bars representing standard error, RQ min and RQ max).
Multiple batches of cryopreserved induction qualified human hepatocytes (each batch being from one donor) were purchased from Life Technologies and cultured on Matrigel coated plates in hepatocyte growth medium (PromoCell). For dedifferentiation studies, hepatocytes from batches Hu4260, Hu8135, Hu4279 and Hu8137 were used after mixing equal number of live cells. For small molecule treatments, batch Hu4260 was used. Mouse hepatocytes were isolated from Black 6 mice livers by perfusion following standard protocol and cultured on Matrigel coated plates in hepatocyte growth medium (Promocell).
Total RNA were isolated using RNAeasy Plus Kit (Qiagen) following manufacturers protocol and qualified with the Life Technologies Qubit fluorometer and Agilent Bioanalyzer. […] Final indexed cDNA libraries were pooled and sequenced on an Illumina HiSeq 2500. Base-calling and demultiplexing were performed using Casava (v1.8.2). Sequences were filtered and trimmed to remove low quality reads, adapters, and other sequencing artifacts. The remaining reads were aligned to a reference database comprising only RefSeq-validated transcripts (i.e., assigned an “NM_” accession). Mouse samples were aligned to the mm10 assembly, and human samples were aligned to the hg19 assembly. […] Reads with more than 200 alignments were excluded from further analysis. […] All RNA-seq results have been deposited at NCBI's GEO under Accession No. GSE94353.
The inventors next investigated whether the MAPK and PI3/Akt pathways contributed to the dedifferentiation of hepatocytes. […] Rapamycin was included as a control, which is an inhibitor of the mTOR pathway, a serine/threonine kinase involved in cell signaling not identified as a key pathway in our analysis.

Where [5] appears, read: primary human hepatocytes, treated 72 hours.
[6] abbreviates: 3 day Activin A (DE), differentiated 18 days.
The mark [7] stands for this setting: 18 day Activin A (DE), differentiated 33 days.

In the case of `CO[C@@H]1[C@H](N(C)C(=O)c2ccccc2)C[C@H]2O[C@]1(C)n1c3ccccc3c3c4c(c5c6ccccc6n2c5c31)C(=O)NC4=O` [Stauprimide], in data set [1], the “ADH4 RNA-Seq expression” value turned out to be 12.82, the “AFP RNA-Seq expression” value was found to be 2485.61, the “ALB RNA-Seq expression” value was determined as 8513.48 and the “BAAT RNA-Seq expression” value is 10.4. Further, in data set [1], the CYP2D6 RNA-Seq expression was determined as 0 TPM, the CYP2E1 RNA-Seq expression is 9.6 TPM, the “HNF4A RNA-Seq expression” value was 25.97 and the “SERPINA1 RNA-Seq expression” value amounted to 10030.14. Also, in data set [1], the “SERPINC1 RNA-Seq expression” value was 42.45, the “UGT1A1 RNA-Seq expression” value was 322.35, the “UGT1A6 RNA-Seq expression” value is on record as 411.32 and the “UGT1A9 RNA-Seq expression” value is 47.42. In data set [1] (in TPM), the “CYP1A1 RNA-Seq expression” value was found to be 47.04 and the “CYP2C9 RNA-Seq expression” value is given as 19.63. Besides, in the data set on hepatocytes, the “expression of AFB” value is listed as “did not increase expression” and the expression of albumin result was “increased expression”.

In the case of `O=C(NOC[C@H](O)CO)c1ccc(F)c(F)c1Nc1ccc(I)cc1F` [PD0325901], in the data set with HepG2 cells, the “HepG2 viability / cell growth” value was “increased cell death and growth arrest”. For the same compound, the HBV receptor expression entry in data set [2] (PHHs treated 72 hours) was “upregulated”. In data set [2] (setting [5]), this compound returned an AFP gene expression of 7.07 transcripts per million, an ALB gene expression of 1293.62 transcripts per million, a CD81 gene expression of 388.31 transcripts per million and a CYP1A2 gene expression of 1.87 transcripts per million. In data set [2] (setting [5]), this compound gave a CYP1B1 gene expression of 3.56 transcripts per million, a CYP2C9 gene expression of 73.61 transcripts per million, a CYP2D6 gene expression of 1.24 transcripts per million and a CYP2E1 gene expression of 4.94 transcripts per million. In data set [2] (setting [5]), this compound yielded a CYP3A4 gene expression of 22.44 transcripts per million, an SLCO1B1 gene expression of 151.48 transcripts per million, an SLCO1B3 gene expression of 7.24 transcripts per million and a UGT1A1 gene expression of 69.02 transcripts per million. In data set [2] (setting [5]), this compound came in with a UGT1A6 gene expression of 1337.30 transcripts per million and a UGT1A9 gene expression of 87.51 transcripts per million.

As to “Activing A: Activin A, growth factor used to differentiate pluripotent stem cells to definitive endoderm”, in data set [3] (setting [6]), the AFP gene expression was determined as 1663.62, the ALB gene expression came out at 600.43, the CYP1A1 gene expression turned out to be 23.85 and the CYP2C9 gene expression is 2.26. Further, in data set [3] (setting [6]), the CYP2D6 gene expression came out at 2.24, the CYP2E1 gene expression was 0, the CYP3A4 gene expression is 0.92 and the U6T1A1 gene expression was determined as 3.86. In data set [3] (setting [6]), this compound showed a UGT1A6 gene expression of 1.75. Further, in data set [3] (setting [7]), the AFP gene expression is on record as 8635.2, the ALB gene expression was 5129.36, the CYP1A1 gene expression came out at 80.48 and the CYP2C9 gene expression is listed as 76.46. In data set [3] (setting [7]), this compound displayed a CYP2D6 gene expression of 3.51, a CYP2E1 gene expression of 0.4, a CYP3A4 gene expression of 33.64 and a U6T1A1 gene expression of 66.36. In data set [3] (setting [7]), this compound yielded a UGT1A6 gene expression of 23.94.

As for `O=c1cc(N2CCOCC2)oc2c(-c3ccccc3)cccc12` [LY294002], in data set [4], the ABCC2 gene expression is given as 232.34 transcripts per million, the CYP1A2 gene expression is 80.54 transcripts per million, the CYP2C9 gene expression is 1332.65 transcripts per million and the CYP2E1 gene expression is recorded as 57.37 transcripts per million. In data set [4], this compound yielded a CYP3A11 gene expression of 1409.71 transcripts per million, a CYP3A25 gene expression of 61.42 transcripts per million, a UGT1A6A gene expression of 48.21 transcripts per million and a UGT1A9 gene expression of 15.27 transcripts per million. Besides, in data set [4], the UGT1A10 gene expression is reported as 0.86 transcripts per million and the UGT2B5 gene expression stood at 196.44 transcripts per million.

Source of the values: patent publication US11116799B2, “Generation of uniform hepatocytes from human embryonic stem cells by inhibiting TGF-beta and methods of maintaining hepatic cultures” (Wisconsin Alumni Research Foundation, priority 2016, dated 2021).
